A short description of series [1]: Cytotoxicity against human MT4 cells after 5 days by MTT assay. The class given is cell-based.
Series [2] is described as follows: Selectivity index, ratio of CC50 for human MT4 cells to EC50 for HIV1 3B expressing wild type reverse transcriptase. The class given is toxicity. To be noted: read-out: Ratio CC50/EC50.
The subject of series [3] is Human immunodeficiency virus 1. Description: Antiviral activity against HIV1 3B infected in human MT4 cells assessed as reduction in virus-induced cytopathic effect after 5 days by MTT assay. The class given is functional, organism-based. To be noted: Human immunodeficiency virus 1, 3B, MT4, 120 h.
For series [4], the system named is Human immunodeficiency virus 2. Kind of series: Antiviral activity against HIV2 ROD infected in human MT4 cells assessed as reduction in virus-induced cytopathic effect after 5 days by MTT assay. Conditions: ISOLATE ROD. Type of series: functional, organism-based.
For series [5], the target named is Human immunodeficiency virus type 1 reverse transcriptase (Human immunodeficiency virus 1, UniProt Q72547). Description: Inhibition of recombinant wild-type HIV-1 3B reverse transcriptase p66/p51 RNA-dependent DNA polymerase activity expressed in Escherichia coli JM109 assessed as reduction in dTTP incorporation using poly(rA)/oligo(dT)16 as template/primer after 40 mins by PicoGreen dye based spectrofluorometric analysis.

Each structure is given as a SMILES string. Active and inactive are the calls of the source. No cut-off for these calls is given here. Where only a bound is given, the exact number is not on record here.

As to `O=C1Nc2ccc(Cl)cc2[C@@](C#CC2CC2)(C(F)(F)F)O1` [EFAVIRENZ], the half-maximal cytotoxic concentration (CC50) at 120 h in series [1] is > 6.33 µM.
Take `Cc1cc(C)cc(S(=O)(=O)n2c(SCC(=O)Nc3ccc(S(C)(=O)=O)cc3)nc3ccccc32)c1`: in series [2], the selectivity ratio stood at 385. In series [3], the 50% effective concentration (EC50) is 0.028 µM. Moreover, the result in series [4] was inactive. In addition, in series [5], the IC50 is 0.047 µM. In addition, the 50% cytotoxic concentration (CC50) at 120 h in series [1] was found to be 10.6 µM.
For `Cc1cc(C)cc(S(=O)(=O)n2c(SCC(=O)Nc3ccccc3S(N)(=O)=O)nc3ccccc32)c1`, in that order: 9, 2.72 µM, “inactive”, 7.68 µM and 25 µM.
On to `Cc1cc(C)cc(S(=O)(=O)n2c(OCC(=O)Nc3ccc(S(C)(=O)=O)cc3Cl)nc3ccccc32)c1`, for which the selectivity ratio in series [2] was > 1890. For the same molecule, the concentration for a half-maximal effect (EC50) in series [3] was 0.12 µM. The result in series [4] was inactive. Further, the IC50 in series [5] is 0.76 µM. For the same molecule, in series [1], the cytotoxic concentration (CC50) at 120 h was > 228 µM.
The like results for `COC(=O)c1ccccc1NC(=O)CSc1nc2ccccc2n1S(=O)(=O)c1cc(C)cc(C)c1` were, in that order, < 5, ≥ 1.06 µM, “inactive”, 15.7 µM and 5.22 µM.
For `Cc1cc(C)cc(S(=O)(=O)n2c(SCC(=O)Nc3ccc(C(=O)O)cc3)nc3ccccc32)c1`, in that order: 577, 0.2 µM, “inactive”, 0.13 µM and 115 µM.
Take `COC(=O)c1ccc(NC(=O)CSc2nc3ccccc3n2S(=O)(=O)c2cc(C)cc(C)c2)cc1`: in series [2], the selectivity ratio is 196. The EC50 in series [3] was 0.051 µM. In series [4], the outcome was inactive. For the same molecule, in series [5], the IC50 stood at 0.088 µM. Besides, the cytotoxic concentration (CC50) at 120 h in series [1] is 10 µM.
Take `Cc1cc(C)cc(S(=O)(=O)n2c(SCC(=O)Nc3ccccc3Cl)nc3ccccc32)c1`: the concentration giving a half-maximal response (EC50) in series [3] turned out to be 0.88 µM. Moreover, the result in series [4] was inactive.
As to `Cc1cc(C)cc(S(=O)(=O)n2c(OCC(=O)Nc3ccccc3Br)nc3ccccc32)c1`, the selectivity ratio in series [2] was > 157. Besides, in series [3], the half-maximal effective concentration (EC50) amounted to 1.55 µM. Besides, the outcome in series [4] was inactive. In addition, the half-inhibitory concentration (IC50) in series [5] was determined as 15.7 µM. For the same molecule, in series [1], the CC50 at 120 h is > 243 µM.
Consider `Cc1cc(C)cc(S(=O)(=O)n2c(SCC(=O)Nc3ccccc3S(C)(=O)=O)nc3ccccc32)c1`, for which the selectivity ratio in series [2] was < 1. Further, the concentration for a half-maximal effect (EC50) in series [3] is ≥ 9.44 µM. Moreover, the result in series [4] was inactive. Moreover, in series [5], the half-maximal inhibitory concentration (IC50) was 60.6 µM. Further, the midpoint of cytotoxicity in series [1], the CC50 at 120 h, lay at 9.31 µM.
For `Cc1ccc(NC(=O)CSc2nc3ccccc3n2S(=O)(=O)c2cc(C)cc(C)c2)cc1`, in that order: 31, 0.094 µM, “inactive”, 0.091 µM and 2.97 µM.
On to `Cc1cc(C)cc(S(=O)(=O)n2c(SCC(=O)Nc3ccccc3C(=O)O)nc3ccccc32)c1`, for which the selectivity ratio in series [2] was 4. Moreover, the 50% effective concentration (EC50) in series [3] was found to be 6.83 µM. The result in series [4] was inactive. Besides, the half-maximal inhibitory concentration (IC50) in series [5] is 21.3 µM. This molecule showed a cytotoxic concentration (CC50) at 120 h in series [1] of 25.2 µM.
As for `Cc1cc(C)cc(S(=O)(=O)n2c(SCC(=O)Nc3ccc(S(N)(=O)=O)cc3)nc3ccccc32)c1`, the selectivity ratio in series [2] amounted to 1290. For the same molecule, the half-maximal effective concentration (EC50) in series [3] was found to be 0.024 µM. Further, the outcome in series [4] was inactive. In addition, the 50% inhibitory concentration (IC50) in series [5] was determined as 0.05 µM. It took 30.9 µM to reach half-maximal cytotoxicity in series [1] (CC50 at 120 h).
For `Cc1cc(C)cc(S(=O)(=O)n2c(OCC(=O)Nc3ccccc3Cl)nc3ccccc32)c1`, in that order: 155, 1.09 µM, “inactive”, 47.3 µM and 169 µM.
Take `Cc1cc(C)cc(S(=O)(=O)n2c(SCC(=O)Nc3ccc(S(C)(=O)=O)cc3Cl)nc3ccccc32)c1`: the selectivity ratio in series [2] worked out at 5540. The CC50 at 120 h in series [1] is ≥ 222 µM.
Turning to `COC(=O)c1ccc(NC(=O)CSc2nc3ccccc3n2S(=O)(=O)c2cc(C)cc(C)c2)c(Cl)c1`, the result in series [4] was inactive. In series [1], this molecule showed a 50% cytotoxic concentration (CC50) at 120 h of 145 µM.
With `COC(=O)c1ccc(NC(=O)COc2nc3ccccc3n2S(=O)(=O)c2cc(C)cc(C)c2)c(Cl)c1`, the selectivity ratio in series [2] amounted to 151. Besides, in series [3], the EC50 came out at 0.79 µM. In addition, the outcome in series [4] was inactive. For the same molecule, in series [5], the IC50 is 5.45 µM. Also, it took 119 µM to reach half-maximal cytotoxicity in series [1] (CC50 at 120 h).
`Cc1cc(C)cc(S(=O)(=O)n2c(SCC(=O)Nc3ccc(S(N)(=O)=O)cc3Cl)nc3ccccc32)c1`: the outcome in series [4] was inactive.
On to `Cc1cc(C)cc(S(=O)(=O)n2c(SCC(=O)Nc3ccccc3C)nc3ccccc32)c1`, for which the selectivity ratio in series [2] was 27. The EC50 in series [3] was found to be 0.235 µM. Further, in series [4], the result was inactive. Besides, the 50% inhibitory concentration (IC50) in series [5] was 0.222 µM. The midpoint of cytotoxicity in series [1], the CC50 at 120 h, lay at 6.15 µM.
In the case of `Cc1ccnc2c1NC(=O)c1cccnc1N2C1CC1` [NEVIRAPINE], the 50% cytotoxic concentration (CC50) at 120 h in series [1] was > 15 µM.
As to `Cc1cc(C)cc(S(=O)(=O)n2c(OCC(=O)Nc3ccc(S(N)(=O)=O)cc3Cl)nc3ccccc32)c1`, the selectivity ratio in series [2] was > 908. Also, in series [3], the EC50 stood at 0.25 µM. The result in series [4] was inactive. Further, in series [5], the IC50 amounted to 5.84 µM. Besides, the cytotoxic concentration (CC50) at 120 h in series [1] was > 227 µM.
Regarding `Cc1cc(C)cc(S(=O)(=O)n2c(SCC(=O)Nc3ccccc3Br)nc3ccccc32)c1`, in series [2], the selectivity ratio is > 3930. For the same molecule, in series [4], the result was inactive. Moreover, the CC50 at 120 h in series [1] was ≥ 236 µM.
